Patent US20200121589A1, “COMPOSITIONS FOR DRUG DELIVERY AND METHODS OF USE THEREOF” (Viramal Limited, priority 2017, published 2020)
Several values for one entry are separate records, joined by “and”; a condition that tells them apart may be missing. Equal values may be shown once.

What was measured:
[1] = Danazol concentrations in serum, peritoneal fluid and peritoneal tissue after oral or vaginal administration to female human subjects; format: in vivo; conditions: for Systemic, Average / Systemic: serum
Procedure: The following example illustrates an administering of either a vaginal or oral formulation of danazol to female human subjects. The vaginal formulation was prepared as described above in Example 2. The oral formulation contained a total dose of 200 mg of danazol present in a capsule body of titanium dioxide and gelatin, and formulated with starch, lactose, talcum and magnesium stearate.
Subjects were administered danazol daily for five days. Six subjects were given a total dose of 600 mg of the oral danazol formulation (3×200 mg) once daily for five days. Seven subjects were given the vaginal formulation containing a total of 100 mg danazol. Samples were then taken from each subject in order to determine the concentration of danazol present systemically, in peritoneal fluid, and in peritoneal tissue. In order to quantify the amount of danazol present systemically, serum samples were collected from each subject and analyzed as described above in Example 3. In order to determine the amount of danazol present in the peritoneal fluid and tissue, endometrial lesions or suspected lesions were harvested, and the amount of danazol present in the samples was quantified as described in Example 3.

[2] = in vivo; cited from earlier work
[3] = Oral - 600 mg Danazol daily for five days, average of six subjects
[4] = Oral - 600 mg Danazol daily for five days, individual subject
[5] = Vaginal - 100 mg Danazol daily for five days, average of seven subjects
[6] = Vaginal - 100 mg Danazol daily for five days, individual subject

Peritoneal Fluid, Average [1, 3]: 83.4 ng/mL
Systemic, Average [1, 3]: 156.5 ng/mL
Estimated Peritoneal Tissue, Average [1, 5]: 16.5 ng/mg
Peritoneal Fluid, Average [1, 5]: 1.2 ng/mL
Systemic, Average [1, 5]: 4.1 ng/mL
Compound: C#C[C@]1(O)CC[C@H]2[C@@H]3CCC4=Cc5oncc5C[C@]4(C)[C@H]3CC[C@@]21C [Danazol]
Peritoneal Fluid [1, 4]: 134 ng/mL and 16.2 ng/mL and 132.8 ng/mL and 19.2 ng/mL and 130.7 ng/mL and 67.7 ng/mL
Systemic [1, 4]: 209 ng/mL and 141.3 ng/mL and 167 ng/mL and 109.7 ng/mL and 198.3 ng/mL and 113.4 ng/mL
Estimated Peritoneal Tissue [1, 6]: 8.4 ng/mg and 13.2 ng/mg and 13.6 ng/mg and 17.2 ng/mg and 16.4 ng/mg and 29.2 ng/mg and 17.6 ng/mg
Peritoneal Fluid [1, 6]: 1 ng/mL (4×) and 1.2 ng/mL and 1.6 ng/mL and 1.8 ng/mL
Systemic [1, 6]: 2.1 ng/mL and 3.3 ng/mL and 3.4 ng/mL and 4.3 ng/mL and 4.1 ng/mL and 7.3 ng/mL and 4.4 ng/mL
half-life [2]: 9.7 h
